Measurements taken from US8637043B2, “Compositions useful as ligands for the formyl peptide receptor like 1 receptor and methods of use thereof” (Chemocentryx, Inc., priority 2001, dated 2014).
Marks after values point to notes of the source that are not given here. Ends that are not written are not given here.

B1: CKβ8-1(25-116): novel NH2-terminal truncated form of CKβ8-1, SEQ ID NO: 16, human recombinant chemokine (protein, listed as Homo sapiens)
chain: MLWRRKIGPQMTLSHAAGFHATSADCCISYTPRSIPCSLLESYFETNSECSKPGVIFLTKKGRRFCANPSDKQVQVCMRMLKLDTRIKTRKN

Assays:
mononuclear cells = experiment: Mononuclear cell infiltration into the dermis after intradermal injection; assay type: in vivo, Rhesus macaques; conditions: for cell infiltration, in words: summary of Table 18
Procedure: Different amounts (8, 20, or 60 μg in 100 μl PBS) of different polypeptides (see Table 18) were injected intradermally in Rhesus macaques under anesthesia. Twenty-four and 48 hours later, 6 mm skin punch biopsies were taken using aseptic technique and then bisected. One portion of the biopsy was embedded in OCT compound, flash frozen in liquid nitrogen and stored at −70° C. The other portion was immersed in formalin and embedded in paraffin wax; subsequently, sections cut on a microtome were stained with hematoxylin and eosin and then microscopically examined for cell infiltration into the dermis (Table 18). As a negative control, monkeys were injected with PBS lacking any polypeptides.
Mononuclear cell infiltration was scored on a scale of 0 to 5:0, very mild perivascular mononuclear inflammatory infiltration throughout the dermis; 1, a mild perivascular mononuclear inflammatory infiltrate seen throughout the dermis; 2, a mild/moderate perivascular mononuclear inflammatory infiltrate seen throughout the dermis; 3, a moderate perivascular mononuclear inflammatory infiltrate seen throughout the dermis; 4, an extensive perivascular mononuclear inflammatory infiltrate seen throughout the dermis; 5, a florid perivascular mononuclear inflammatory infiltrate seen throughout the dermis. intermediate scores are indicates, e.g., “⅔” represents a score between 2 and 3.

OVA-specific antibody = OVA-specific antibody responses with IFA or alum adjuvant in Rhesus monkeys (Example 18); assay type: in vivo
Procedure: First, 96-well U-bottom plastic dishes were coated overnight with 1 μg ovalbumin (OVA) in 100 μl PBS per well. The next day, the dishes were rinsed with PBS, blocked with PBS containing 5% fetal bovine serum (FBS), and rinsed with PBS again. Plasma samples from experimental animals (see below) were diluted 10^2- to 10^5-fold and added to the dishes for 2 hours, after which the dishes were again rinsed with PBS. The dishes were then incubated with biotinylated goat anti-monkey IgG detection antibodies, then rinsed with PBS and incubated with streptavidin-linked horseradish peroxidase (SA-HRP). After a final rinsing with PBS, the HRP substrate 2,2′-Azinobis [3-ethylbenzothiazoline-6-sulfonic acid]-diammonium salt was added.
Different types of immune responses can be induced in mammals by varying parameters such as the dose of antigen, the formulation, the route of administration, and the type of adjuvant.

human neutrophils = experiment: Migration assay (ChemoTx), human neutrophils; assay type: cell-based; conditions: 90 min, 100 nM
Procedure: Migration assays were performed on monocytes and neutrophils. Human monocytes and neutrophils (prepared as in Exampe 2) were harvested and resuspended in chemotaxis medium (CM). The CM consisted of Hank's buffered salt solution (Gibco, Mass.) containing CaCl2 (1 mM) and MgSO4 (1 mM) with added 0.1% BSA (Sigma, St. Louis, Mo.). The assays were performed in 96-well ChemoTx® microplates (Neuroprobe, Mass.). […] After incubation for 90 min (37° C., 100% humidity, 5% CO2), cells were removed from the upper surface of the filter by scraping. Cells that migrated into the lower chamber were quantified using the Quant cell proliferation assay kit (Molecular Probes, Oreg.).
The above peptides were prepared as in previous examples.

pariental L1.2 cells = experiment: Migration of parental L1.2 cells; assay type: cell-based, murine
Procedure: Migration assays were performed on monocytes and neutrophils. Human monocytes and neutrophils (prepared as in Exampe 2) were harvested and resuspended in chemotaxis medium (CM). The CM consisted of Hank's buffered salt solution (Gibco, Mass.) containing CaCl2 (1 mM) and MgSO4 (1 mM) with added 0.1% BSA (Sigma, St. Louis, Mo.). The assays were performed in 96-well ChemoTx® microplates (Neuroprobe, Mass.). Leukotactin, MlP-1α and chemokines (CKβ8(1-99), CKβ8(25-99), CKβ8-1(1-116) or CKβ8-1(25-116), prepared as in Example 1) were added to the lower wells (final volume 29 μL), and 20 μL of cell suspension (5×10^6 cells/mL for monocytes; 2.5×10^6 cells/mL for neutrophils) added to the polycarbonate filters (5 μm pore size for monocytes; 3 μm pore size for neutrophils). After incubation for 90 min (37° C., 100% humidity, 5% CO2), cells were removed from the upper surface of the filter by scraping. Cells that migrated into the lower chamber were quantified using the Quant cell proliferation assay kit (Molecular Probes, Oreg.).
The ability of CKβ8-1 (25-116) to elicit the migration of the FPRL1 expressing cells was examined. Test conditions were as in Example 5.

native L1.2 cells = experiment: Calcium flux in parental L1.2 cells or cells transfected with other chemokine receptors; assay type: cell-based, murine; conditions: pariental cells or cells transfected with other chemokine receptors
Text: The functional activities of CKβ8-1 (25-116) were investigated in human FPRL1-L1.2 transfectants and in native L1.2 cells. Stable expression of formyl peptide-like receptor 1 (FPRL1) in L.1.2 cell was obtained as follows. Full length cDNA encoding FPRL1 was cloned, using the polymerase chain reaction (PCR), from genomic DNA isolated from undifferentiated HL-60 cells. The polymerase chain reaction product was cloned into pcDNA3.1 (Invitrogen, Carlsbad, Calif.) using standard molecular cloning procedures and completely sequenced to confirm identity. Twenty micrograms of the FPRL1/pcDNA3.1 construct were linearized by digestion with Bsm1 (New England Biolabs, Beverly, Mass.) and used to transfect the murine B cell line L1.2 as follows. Twenty five million cells were washed twice and resuspended in 0.8 ml of PBS. The cells were incubated for 10 min at room temperature with the linearized FPRL/pcDNA3.1 construct DNA and transferred to a 0.4-cm cuvette, and a single electroporation pulse was applied at 250 V, 960 μF. Electroporated cells were incubated for 10 min at room temperature and transferred to culture at 37° C. in RPMI supplemented with 10% FCS. […] After 2-3 weeks under drug selection, stable geneticin-resistant FPLR1 expressing cells were assessed for their ability to mobilize Ca^++ in response to SHAAGtide or CKbeta 8-1 at concentrations of 1 to 1000 nM. […]

[1] = 60 μg intradermally, 24 hours, scale 0 (very mild) to 5 (florid)

Molecule	Mononuclear cell infiltration score (mononuclear cells; 8 μg, 24 hours)	Mononuclear cell infiltration score (mononuclear cells; 8 μg, 48 hours)	Mononuclear cell infiltration score (mononuclear cells; 20 μg, 24 hours)	Mononuclear cell infiltration score (mononuclear cells; 20 μg, 48 hours)	Mononuclear cell infiltration score (mononuclear cells; [1])	Mononuclear cell infiltration score (mononuclear cells; 60 μg, 48 hours)	cell infiltration, in words (mononuclear cells)	effect of co-administration on the OVA with IFA response (OVA-specific antibody; IFA adjuvant)	effect of co-administration on the IgG response induced by OVA plus alum (OVA-specific antibody; alum adjuvant)	migration of neutrophils (human neutrophils)	migration of neutrophils (human neutrophils; listed as CKβ8-1 (25-116))	migration of parental L1.2 cells (pariental L1.2 cells)	induced calcium release (native L1.2 cells)
MLWRRKIGPQMTLSHAAY [SEQ ID NO: 6]	0	0	2*	0	0	0	moderately strong infiltration in one of the two animals	did not diminish the OVA with IFA response	dramatically reduced the IgG response induced by OVA plus alum				
MLWRRKIGPQMTLSHAAG [SEQ ID NO: 1]										produced migration			
B1			0	0	0	0	no infiltration			produced migration	robust response	did not migrate	not observed
